These results are taken from ChEMBL document CHEMBL2062504, “Diterpenoid alkaloids from the lateral root of Aconitum carmichaelii” (J Nat Prod, 2012).

One test relates to MCF7. The experiment in a line: Cytotoxicity against human MCF7 cells at 10 uM after 96 hrs by MTT assay. The test is classed as functional, cell-based. Background: Tetrazolium dyes change colour on reduction, which living cells bring about.
The next test concerns Liver microsomes. Briefly: Antioxidant activity in rat liver microsome assessed as inhibition of FeSO4-induced lipid peroxidation at 10 uM incubated for 15 mins prior to FeSO4-challenge measured after 15 mins by modified thiobarbituric acid method. The test is classed as functional.
A further test has as its system HCT-8. Briefly: Cytotoxicity against human HCT8 cells at 10 uM after 96 hrs by MTT assay. It is filed as functional, cell-based.
Another test concerns Bel-7402. The experiment in a line: Cytotoxicity against human Bel7402 cells at 10 uM after 96 hrs by MTT assay. The test is classed as functional, cell-based.
Another test has as its system A549. The experiment in a line: Cytotoxicity against human A549 cells at 10 uM after 96 hrs by MTT assay. It is filed as functional, cell-based.
The test system of test [1] is Peritoneal macrophage cell. The experiment in a line: Antiinflammatory activity in mouse peritoneal macrophages assessed as inhibition of nitric oxide production at 10 uM. The test is classed as functional, cell-based.
The next test concerns WB-F344. Briefly: Hepatoprotective activity against DL-galactosamine-induced cell death in rat WB-F344 cells at 10 uM incubated for 1 hr prior to DL-galactosamine-challenge measured after 24 hrs by MTT assay. It is filed as functional, cell-based.
In another test the test system is PC-12. Briefly: Neuroprotective activity against serum starvation-induced cell death in rat PC12 cells assessed as cell viability at 10 uM incubated for 24 hrs prior to serum starvation measured after 24 hrs by MTT assay (reference value: 55.1+/-4.2%). The test is classed as functional. The settings on record: read-out: Activity.
The test system of the next test is KETR3. The experiment in a line: Cytotoxicity against human Ketr3 cells at 10 uM after 96 hrs by MTT assay. It is filed as functional, cell-based.
A further test deals with BGC-823. The experiment in a line: Cytotoxicity against human BGC823 cells at 10 uM after 96 hrs by MTT assay. It is filed as functional, cell-based.

Activity calls are given as the source filed them. The calls are words filed in the database; no cut-off is given here.

As to `COC[C@]12CN(C)C3[C@@H]4[C@H](OC)[C@H]1[C@@]3([C@@H](OC)C[C@H]2O)[C@@H]1C[C@@]2(O)[C@H](OC(=O)c3ccccc3)[C@@H]1[C@]4(OC(=O)c1ccccc1)[C@@H](O)[C@@H]2OC`, the result in the test with MCF7, with HCT-8, with Bel-7402, in the test with A549, in the test on WB-F344 and in the test with KETR3 was inactive. For the same molecule, the outcome in the test with BGC-823 was inactive. For the same molecule, the inhibition entry (in the test with Liver microsomes; in test [1]) was “inactive” each time. The viability at 10 µM in the test on PC-12 was found to be 74.7%.
For the molecule `CCN1C[C@]2(COC)[C@H](O)C[C@H](OC)[C@]34C1[C@H]([C@H](OC)[C@H]23)[C@]1(O)[C@H]2[C@@H](OC(=O)c3ccccc3)[C@](O)(C[C@H]24)[C@@H](OC)[C@@H]1O`, the result with MCF7, with HCT-8, with Bel-7402, in the test with A549, in the test on WB-F344 and in the test with KETR3 was inactive. In addition, the outcome in the test with BGC-823 was inactive. Moreover, the inhibition result (in the test with Liver microsomes; in [1]) was “inactive” throughout. In addition, the viability at 10 µM in the test on PC-12 came to 70.8%.
On to `COC[C@]12CN(C)C3[C@@H]4[C@H](OC)[C@H]1[C@@]3([C@@H](OC)C[C@H]2O)[C@]1(O)C[C@@]2(O)[C@H](OC(=O)c3ccccc3)[C@@H]1[C@]4(OC)[C@@H](O)[C@@H]2OC` (stereo in doubt; 7), for which the outcome with MCF7, in the test on HCT-8, in the test with Bel-7402, in the test with A549, in the test on WB-F344 and in the test on KETR3 was inactive. Moreover, the result with BGC-823 was inactive. For the same molecule, the inhibition entry (in the test with Liver microsomes; in test [1]) was “inactive” in each case.
For `COC[C@]12CN(C)C3[C@@H]4[C@H](OC)[C@H]1[C@@]3([C@@H](OC)C[C@H]2O)[C@]1(O)C[C@@]2(O)[C@H](OC(=O)c3ccccc3)[C@@H]1[C@]4(O)[C@@H](O)[C@@H]2OC`, the outcome with MCF7, in the test on HCT-8, in the test with Bel-7402, in the test with A549, in the test on WB-F344 and in the test on KETR3 was inactive. Also, the result with BGC-823 was inactive. Further, the inhibition entry (with Liver microsomes; in [1]) was “inactive” each time.
Turning to `CCN1C[C@]2(COC)CC[C@H](OC)[C@]34C1[C@H]([C@H](O)[C@H]23)[C@]1(O)[C@H]2[C@@H](OC(=O)c3ccccc3)[C@H](C[C@H]24)[C@@H](OC)[C@@H]1O`, the result in the test on MCF7, in the test with HCT-8, with Bel-7402, with A549, in the test with WB-F344 and in the test with KETR3 was inactive. Also, in the test with BGC-823, the result was inactive. The inhibition result (in the test on Liver microsomes; in test [1]) was “inactive” throughout.
As to `C=C1C[C@]23C4[C@@H](OC(=O)[C@@H](C)CC)[C@H]1[C@@H](O)[C@H]2[C@]12C[C@@H](OC(=O)C(C)C)C[C@]5(C)[C@H]1[C@H]([C@@H]3O)[N+](C)([C@H]42)[C@H]5O`, the result in the test on MCF7, with HCT-8, with Bel-7402, in the test on A549, in the test on WB-F344 and with KETR3 was inactive. Also, the result with BGC-823 was inactive. Further, the inhibition entry (in the test on Liver microsomes; in [1]) was “inactive” in each case.
For `CCN1C(=O)[C@]2(COC)CC[C@H](OC)[C@]34C1[C@H]([C@H](OC)[C@H]23)[C@]1(OC(C)=O)[C@H]2[C@@H](OC(=O)c3ccccc3)[C@](O)(C[C@H]24)[C@@H](OC)[C@@H]1O`, the result with MCF7, in the test with HCT-8, in the test on Bel-7402, in the test with A549, in the test with WB-F344 and with KETR3 was inactive. In addition, in the test on BGC-823, the outcome was inactive. The inhibition result (in the test on Liver microsomes; in test [1]) was “inactive” each time.
With `CCN1C[C@]2(COC)CC[C@H](OC)[C@]34C1[C@H]([C@H](OC)[C@H]23)[C@]1(OC(C)=O)[C@H]2[C@@H](OC(=O)c3ccccc3)[C@H](C[C@H]24)[C@@H](OC)[C@@H]1O`, the outcome in the test with MCF7, with HCT-8, in the test with Bel-7402, with A549, in the test with WB-F344 and in the test with KETR3 was inactive. Besides, in the test on BGC-823, the result was inactive. Further, the inhibition entry (in the test with Liver microsomes; in test [1]) was “inactive” throughout.
With `COC[C@]12CN(C)C3[C@@H]4[C@H](OC)[C@H]1[C@@]3([C@@H](OC)C[C@H]2OC(C)=O)[C@]1(O)C[C@@]2(O)[C@H](OC(=O)c3ccccc3)[C@@H]1[C@]4(OC)[C@@H](O)[C@@H]2OC`, the outcome in the test with MCF7, in the test on HCT-8, in the test on Bel-7402, in the test on A549, with WB-F344 and in the test with KETR3 was inactive. Besides, the result with BGC-823 was inactive. Besides, the inhibition entry (with Liver microsomes; in [1]) was “inactive” each time.
As for `CCN1C[C@]2(COC)CC[C@H](O)[C@]34C1[C@H]([C@H](OC)[C@H]23)[C@]1(O)[C@H]2[C@@H](OC(=O)c3ccccc3)[C@H](C[C@H]24)[C@@H](OC)[C@@H]1O`, the outcome in the test on MCF7, with HCT-8, with Bel-7402, in the test with A549, with WB-F344 and in the test on KETR3 was inactive. For the same molecule, in the test on BGC-823, the result was inactive. Further, the inhibition result (with Liver microsomes; in test [1]) was “inactive” each time.
Consider `CCN1C[C@]2(COC)[C@H](O)C[C@H](OC)[C@]34C1[C@H]([C@H](OC)[C@H]23)[C@]1(OC)[C@H]2[C@@H](OC(=O)c3ccccc3)[C@](O)(C[C@]24O)[C@@H](OC)[C@@H]1O`, for which the result in the test with MCF7, in the test on HCT-8, with Bel-7402, in the test on A549, in the test with WB-F344 and with KETR3 was inactive. Moreover, the outcome in the test on BGC-823 was inactive. The inhibition entry (with Liver microsomes; in test [1]) was “inactive” throughout.
With `C=C1C[C@]23C[C@H]4[C@@H]5[C@@]6(C)C[C@H](OC(=O)c7ccccc7)[C@@H](OC(C)=O)[C@]57C(C2[C@@H](O)[C@H]1[C@@H](OC(C)=O)[C@H]37)N4[C@H]6O`, the result with MCF7, in the test on HCT-8, with Bel-7402, in the test with A549, in the test with WB-F344 and with KETR3 was inactive. Besides, the result in the test with BGC-823 was inactive. Besides, the inhibition result (in the test on Liver microsomes; in [1]) was “inactive” in each case.
Turning to `CCN1C[C@]2(COC)CC[C@H](OC)[C@]34C1[C@H]([C@H](OC)[C@H]23)[C@]1(OC)[C@H]2[C@@H](OC(=O)c3ccccc3)[C@](O)(C[C@H]24)[C@@H](OC)[C@@H]1O` (single isomer, unassigned; (-)), the result in the test on MCF7, in the test on HCT-8, in the test with Bel-7402, in the test with A549, in the test with WB-F344 and in the test on KETR3 was inactive. Also, the result in the test with BGC-823 was inactive. In addition, the inhibition result (with Liver microsomes; in [1]) was “inactive” in each case.
Turning to `COC[C@]12CN(C)C3[C@@H]4[C@H](OC)[C@H]1[C@@]3([C@@H](OC)C[C@H]2O)[C@@H]1C[C@@]2(O)[C@H](OC(=O)c3ccccc3)[C@@H]1[C@]4(O)[C@@H](O)[C@@H]2OC`, the result in the test with MCF7, in the test on HCT-8, in the test on Bel-7402, in the test on A549, in the test with WB-F344 and in the test with KETR3 was inactive. Further, the outcome in the test on BGC-823 was inactive. The inhibition entry (with Liver microsomes; in [1]) was “inactive” each time.
Consider `COC[C@@]12CC[C@H](OC)[C@]34C([C@H]([C@H](OC)[C@H]13)[C@]1(OC(C)=O)[C@H]3[C@@H](OC(=O)c5ccccc5)[C@](O)(C[C@]34O)[C@@H](OC)[C@@H]1O)N(C)C2`, for which the result in the test with MCF7, with HCT-8, with Bel-7402, in the test with A549, in the test on WB-F344 and in the test with KETR3 was inactive. Further, the outcome with BGC-823 was inactive. In addition, the inhibition entry (in the test on Liver microsomes; in test [1]) was “inactive” throughout.
